Laboratory results reported in US4048334A, “Active derivatives of methylamino in therapeutic compositions and methods of use” (priority 1974, dated 1977).
“Also recorded” adds a separate entry of the source.

Columns and labels:
[1] = tested on: tremorine-induced cholinergic effects; assay: Anti-tremorine test (cholinolytic properties in vivo); design: species or system mice (male, OF1 strain); key to peripheral cholinergic effects score (salivation, sweating, weeping): 0: no action; 1: slight action; 2: average action; 3: strong action; 4: very strong action
Procedure: For this purpose, the following test was performed with a view to determining the anti-tremorine properties of Compound 1.
When injected into mice, tremorine produces peripheral effects i.e. weeping, sweating, salivation and diarrhoea and central effects i.e. tremor and akinesia. Such effects are due to an increase in the amount of intracerebral acetylcholine and serotonine.
Male mice of the OF1 strain weighing about 22 g were divided into batches of 10. […] Thirty minutes later a dose of 10 mg/kg of tremorine was injected by intraperitoneal route and, at different times after this injection, note was taken of the cholinergic effects on each animal in accordance with the following scale: […]

[2] = tested on: electrocardiogram; assay: Effect on the electrocardiogram; assay type: in vivo; conditions: dog, in vivo; listed as preferred compound of the invention
[3] = tested on: catalepsy; assay: Inhibition of catalepsy (crossing of homolateral paws, prochlorperazine); assay type: in vivo, rat; conditions: 5 mg/kg oral, 30 min before prochlorperazine i.p., 3 hours after
Procedure: Additional trials were carried out on rats with Compound 1 and amantadine. These trials involved catalepsy as evidenced by the crossing of the animals' homolateral paws.

[4] = Spasmolytic / cholinolytic (anticholinergic) activity in vivo or unspecified; conditions: at antiparkinsonian doses well below the toxic dose
[5] = tested on: isolated duodenum of the rat; assay: MAGNUS test: inhibition of acetylcholine spasm (cholinolytic / spasmolytic activity in vitro)
Source text: This test consists in determining the dose of acetylcholine which, when added to the bath, provokes spasm of the isolated duodenum of the rat. The next step consists in determining the dose of the compound under study which, when added to the bath 30 seconds before the acetylcholine, reduces the spasm.

[6] = SPERBER et al., J. Amer. Chem. Soc., 71, 3352 (1949); cited from earlier work
[7] = tested on: neuroleptic-induced catatonia; assay: Suppression of neuroleptic-induced catatonia (curative treatment, prochlorperazine); assay type: in vivo, rat (male, OFA strain); conditions: for catatonia score (5 rats per batch): 5 mg/kg oral
Procedure: b. Suppression of neuroleptic-induced catatonia
Batches of 5 male rats of the OFA strain were given 12.5 mg/kg of prochlorperazine by intraperitoneal route. Fifty-five minutes later, an oral dose in aqueous solution of the compound to be studied was administered to all the animals with the exception of the control group. The progress of the catatonia was noted following the same scale as that used in the tests described above.

[8] = tested on: reserpine-induced catatonia; assay: Inhibition of reserpine-induced catatonia; assay type: in vivo, rat (male, OFA strain)
Procedure: 1. Inhibition of reserpine-induced catatonia
After sufficient doses of reserpine have been administered to the rat, a series of symptoms occur, more particularly ptosis, catatonia and a drop in central temperature. These symptoms are caused by the depletion of the intragranular reserve pool of boigenetic amines at the synaptic terminals.
An oral dose of the compound to be studied in aqueous solution was administered to batches of 10 male rats of the OFA strain weighing about 150 to 200 g. Thirty minutes later a dose of 5 mg/kg of reserpine was given by intraperitoneal route. Three hours after the injection of reserpine, the animals were suspended by the four paws to a horizontally stretched wire fixed at 15 cm from the ground. The catatonic animals were those which maintained the position so given for at least 30 seconds. […] The maximum score was therefore 10 per batch. An identical trial was undertaken with control animals which received reserpine but none of the compounds being studied.

[9] = in vivo; conditions: mouse, mice, oral, aqueous solution, 10 days observation
[10] = tested on: neuroleptic-induced catatonia; assay: Inhibition of neuroleptic-induced catatonia (prochlorperazine); assay type: in vivo, rat (male, OFA strain)
Procedure: 2. Inhibition of neuroleptic-induced catatonia
The blocking of dopaminergic receptors by neuroleptics in the extra-pyramidal system induces catatonia in the rat. Catatonia is differentiated from sedative properties by means of the test used hereabove for reserpine-induced catatonia. The same system of scoring was also employed in the present case.
An oral dose of the compound to be studied in aqueous solution was administered to batches of 10 male rats of the OFA strain weighing about 150 to 200 g. […] Three hours after the injection of this latter compound, catatonia was measured. An identical trial was also carried out with control animals which received prochlorperazine but none of the compounds under study.
The scoring system, used was that given hereabove in Table I.

[11] = Emetic action; assay type: in vivo; conditions: dog, any dose
Source text: Furthermore, the compounds of the invention have no emetic action in the dog at any doses and are not cholinolytic agents.

[12] = tested on: reserpine-induced catatonia; assay: Suppression of reserpine-induced catatonia (curative treatment); assay type: in vivo, rat (male, OFA strain); design: key to catatonia score (maximum 5 per batch): number of animals (of 5) still in catatonia; max 5 per batch
Procedure: a. Suppression of reserpine-induced catatonia
Batches of 5 male rats of the OFA strain, weighing 150 to 200 g were given 5 mg/kg of reserpine by intraperitoneal route. One hour and 45 minutes later, namely when the animals were in a state of catatonia, an aqueous dose of the compound to be studied was administered by oral route to all the animals with the exception of the control group.
The progress of the catatonia was then noted following the scale used in the tests described hereabove.
The maximum score was thus 5 per batch which means that all the animals of the batch were considered to be still in a state of catatonia.

For `CCCC(N)(CCC)CCC` [Compound 1], the “peripheral cholinergic effects score (salivation, sweating, weeping)” value ([1]; 5 mg/kg oral, 20, 30 and 40 minutes after tremorine 10 mg/kg i.p.) was 4, the “central cholinergic effects (normal and provoked tremor)” value ([1]; 5 mg/kg oral, identical to the peripheral score (4)) was “Identical results” and the antitremorine properties ([1]; mouse, in vivo) was “devoid of antitremorine properties”. The “effect on the electrocardiogram” value [2] was “does not cause any undesirable effect on the electrocardiogram; also recorded: devoid of emetic properties and of undesirable side-effects on the electrocardiogram”, the “inhibition of the catalepsy” value [3] was “complete inhibition of the catalepsy” and the “spasmolytic activity in vivo” value [4] was “non-existent”. The “spasmolytic activity in vitro” value [5] was “very weak, in fact practically non-existent”, the “% of inhibition of the spasm” value ([5]; 0.1 × 10^-3 g/ml of bath) was 0% and the “% of inhibition of the spasm” value ([5]; 0.1 × 10^-4 g/ml of bath) was 0%. For the same molecule, the “% of inhibition of the spasm” value ([5]; 0.1 × 10^-5 g/ml of bath) was 0%, the “% of inhibition of the spasm” value ([5]; 0.2 × 10^-2 g/ml of bath) was 36% and the “% of inhibition of the spasm” value ([5]; 0.2 × 10^-6 g/ml of bath) was 0%. For the same molecule, the “% of inhibition of the spasm” value ([5]; 0.5 × 10^-2 g/ml of bath) was 60%, the “cholinolytic activity in vitro” value ([5]; in comparison with atropine) was “virtually non-existent” and the “spasmolytic activity and toxicity versus corresponding trialkylethylamines” value [6] was “less spasmolytic and more toxic than the corresponding trialkylethylamines”. For the same molecule, the “catatonia score (5 rats per batch)” value ([7]; 1h30 after prochlorperazine) was 3, the “catatonia score (5 rats per batch)” value ([7]; 2h30 after prochlorperazine) was 0 and the “catatonia score (5 rats per batch)” value ([7]; 3h30 after prochlorperazine) was 0. The “catatonia score (5 rats per batch)” value ([7]; 3h after prochlorperazine) was 0, the “catatonia score (5 rats per batch)” value ([7]; 4h after prochlorperazine) was 0 and the “catatonia score (5 rats per batch)” value ([7]; 5h after prochlorperazine) was 0. For the same molecule, the “rapidity of action against neuroleptic-induced catatonia” value ([7]; 5 mg/kg versus amantadine 80 mg/kg) was “acts against neuroleptic-induced catatonia more rapidly than does a dose of 80 mg/kg of amantadine”, the “times more active than amantadine, neuroleptic-induced catatonia, curative treatment” value ([7]; versus amantadine) was “at least 16 times” and the “Inhibition of reserpine-induced catatonia” value ([8]; 5 mg/kg oral, 30 min before reserpine 5 mg/kg i.p.) was 4 (100% inhibition of catatonia in comparison with the controls (namely a score of 0 per studied batch)). For the same molecule, the “activity (dose) compared with amantadine, reserpine-induced catatonia” value ([8]; versus amantadine) was “as active as amantadine but at a dose which is twenty times inferior to that of amantadine”, the LD50 at 240 h [9] was 100 mg/kg and the “Inhibition of the neuroleptic-induced catatonia” value ([10]; 1 mg/kg) was 70%. For the same molecule, the “Inhibition of the neuroleptic-induced catatonia” value ([10]; 5 mg/kg oral, 30 min before prochlorperazine 12.5 mg/kg i.p.) was 4 (100% inhibition of catatonia in comparison with the controls (namely a score of 0 per studied batch)), the “activity compared with amantadine, neuroleptic-induced catatonia” value ([10]; versus amantadine) was “twenty times more active than amantadine” and the emetic action [11] was “devoid of emetic properties”. The “catatonia score (maximum 5 per batch)” value ([12]; 2.5 mg/kg oral, 2h15 after reserpine) was 3, the “catatonia score (maximum 5 per batch)” value ([12]; 2.5 mg/kg oral, 2h30 after reserpine) was 2 and the “catatonia score (maximum 5 per batch)” value ([12]; 2.5 mg/kg oral, 3h30 after reserpine) was 0. For the same molecule, the “catatonia score (maximum 5 per batch)” value ([12]; 2.5 mg/kg oral, 2h after reserpine) was 4, the “catatonia score (maximum 5 per batch)” value ([12]; 2.5 mg/kg oral, 3h after reserpine) was 0 and the “catatonia score (maximum 5 per batch)” value ([12]; 2.5 mg/kg oral, 4h after reserpine) was 0. The “catatonia score (maximum 5 per batch)” value ([12]; 2.5 mg/kg oral, 5h after reserpine) was 0, the “catatonia score (maximum 5 per batch)” value ([12]; 5 mg/kg oral, 2h15 after reserpine) was 1 and the “catatonia score (maximum 5 per batch)” value ([12]; 5 mg/kg oral, 2h30 after reserpine) was 0. For the same molecule, the “catatonia score (maximum 5 per batch)” value ([12]; 5 mg/kg oral, 3h30 after reserpine) was 0, the “catatonia score (maximum 5 per batch)” value ([12]; 5 mg/kg oral, 2h after reserpine) was 5 and the “catatonia score (maximum 5 per batch)” value ([12]; 5 mg/kg oral, 3h after reserpine) was 0. The “catatonia score (maximum 5 per batch)” value ([12]; 5 mg/kg oral, 4h after reserpine) was 0, the “catatonia score (maximum 5 per batch)” value ([12]; 5 mg/kg oral, 5h after reserpine) was 0 and the “rapidity of suppression of reserpine-induced catatonia” value ([12]; 2.5 and 5 mg/kg oral versus amantadine 80 mg/kg) was “suppresses reserpine-induced catatonia more rapidly than a dose of 80 mg/kg of amantadine”. For the same molecule, the “times more active than amantadine, reserpine-induced catatonia, curative treatment” value ([12]; versus amantadine) was “at least 32 times”.
